In patent US9938328B2, “Use of PEDF-derived polypeptides for treating alopecia and/or hair depigmentation” (MacKay Memorial Hospital, priority 2012, dated 2018):

What was measured:
C57BL/6 mice [1] = assay: Chemotherapy (CYP)-induced hair loss and depigmentation in depilated mice, topical 44-mer ointment; type: in vivo, mouse
Procedure: (§1) Before use, the stock containing the 44-mer was prepared into a working dilution, which is then mixed with an antibiotic ointment containing 5 mg/g neomycin sulfate and 12.5 mg/g bacitracin to obtain an antibiotic ointment containing 25 μM of 44-mer. As to other PEDF peptides, 5 μl of 5 mM PEDF peptide stock was gradually dissolved in ethyl alcohol (30% w/w in distilled water), and then 1-oleoyl-rac-glycerol (1% w/w, a skin penetration enhancer) and light mineral oil (1% w/w) were gradually added. The solution was finally gelled by adding hydroxypropyl methylcellulose (5% w/w) to a final volume of 1 ml. A DMSO vehicle corresponding to the peptide formulation was prepared for the purpose of in vivo comparison. FITC-29-mer was also dissolved in the same formulation for applied on top of skin to determining the follicular distribution of FITC-29-mer.
(§2) For topical treatments, 350 mg ointment or gel containing 25 μM of PEDF peptide was spread gently over dorsal skin per mouse.
For immunostaining, de-paraffinized tissue sections were blocked with 10% goat serum for 1 hour. Dual staining was done using primary antibodies against c-kit (1:100 dilution; red) and tyrosinase (1:100 dilution) at 37° C. for 2 hours, followed by incubation with the rhodamine-conjugated goat anti-rabbit IgG antibody (1:500 dilution) for 1 hour at room temperature a before counterstaining with hematoxylin (blue) for about 7 minutes.
The vibrissae follicle cryosections were washed three times in PBS. Formalin-fixed, paraffin-embedded skin specimens were deparaffinized in xylene and rehydrated in a graded series of ethanol. Sections were then stained with TdT-mediated dUTP nick-end labeling (TUNEL)-based kit (Roche Molecular Biochemicals, Indianapolis, Ind.) following the manufacturer's instructions. The cell number was monitored by counterstaining with Hoechst 33258 (blue). The nuclei were calculated in ten randomly selected fields of the three different chambers by a Zeiss epifluorescence microscope (400×, 10 fields/sample). Pictures were recorded on Zeiss software.
6-week-old female C57BL/6 mice that had normal black fur (i.e., those had heavily melanized terminal hair shafts) were used in this example. In four independent experiments, a total of 80 mice were used. C57BL-6 mice have been widely used in the research of alopecia and hair-depigmentation induced by chemotherapy. Only mice in the resting stage of the hair cycle (telogen) were used in these studies. Since pigment production (melanogenesis) in mice occurs exclusively in anagen follicles, telogen C57BL-6 mice could be recognized by the homogeneously pink color of their back skin. Anagen was induced in the back skin of telogen mice by depilation.
In order to obtain mice that were in exactly the same stage of anagen development, the dorsal hairs were carefully shaved with an electric clipper. Nine days after the depilation, hair grown to anagen phase as judged by skin color from pink (telogen skin) to gray (early stage of anagen VI).
On day-9 post-depilation, mice were anesthetized by an intraperitoneal injection of a mixture of zoletil (6 mg/kg) and xylazine (3 mg/kg). Mice were randomly assigned to the following experimental groups. In the CYP/vehicle group, mice received intraperitoneal injection of cyclophosphamide (CYP, an anti-cancer drug) (150 mg/kg), and 350 mg antibiotic ointment was applied to the back skin at the same time. […]

C57BL/6 mice [2] = assay: Hydrogen peroxide (oxidative stress)-induced hair loss and depigmentation in depilated mice; type: in vivo, mouse; details: ointment with 25 μM 44-mer
Procedure: as §1, §2
In this example, the relationships between the stress caused by endogenous challenge (e.g., oxidants) and hair loss and hair graying were investigated. The mice were selected and depilated as described in Example 1 above. On day-9 post-depilation, the mice were subcutaneously injected with hydrogen peroxide at a dose of 10 ml/kg body weight. […]

## VLLSPLSVATALSALSLGAEQRTESIIHRALYYDLISSPDIHGT [44-mer, 44-mer fragment (residues 78-121) of human PEDF]
C57BL/6 mice [1]; 7 and 36 days after the CYP injection
  hair growth activity versus CYP/vehicle (photographs, FIG. 1): better hair growth activity
C57BL/6 mice [1]; 36 days after CYP injection
  hair colour versus CYP and CYP/vehicle groups (FIG. 1): substantially darker hairs
C57BL/6 mice [1]; no CYP injection, 350 mg antibiotic ointment containing 44-mer on back skin
  TUNNEL Labeling Index (%): <0.1%
C57BL/6 mice [1]; with CYP 150 mg/kg i.p., 350 mg antibiotic ointment containing 25 μM 44-mer on back skin daily
  TUNNEL Labeling Index (%): 10.6 ± 1.4 %
C57BL/6 mice [1]; with CYP, barely detected in CYP/vehicle group
  c-kit and tyrosinase expression in the bulge (immunostaining, FIG. 3): c-kit and tyrosinase expression were found in the bulge
C57BL/6 mice [2]; 22 days after the H2O2 injection (10 ml/kg s.c.)
  hair growth activity versus H2O2/vehicle (photographs, FIG. 4): better hair growth activity
C57BL/6 mice [2]; 22 days after the H2O2 injection
  hair color versus H2O2/vehicle (FIG. 4): darker
